From patent publication US9695155B2, “Herbicidal substituted pyrimidinyloxy benzene compounds” (E. I. DU PONT DE NEMOURS AND COMPANY, priority 2013, dated 2017)

Assays:
Italian ryegrass [1] = test: Test A preemergence; type: in vivo, Lolium multiflorum
Method in brief: (§1)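 Injury scores run from 0, no effect, to 100, complete control, judged by eye against untreated plants roughly 10 days after treatment. Chemicals carried a surfactant in a non-phytotoxic solvent and went onto loam–sand soil preemergence or onto one- to two-leaf seedlings postemergence.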

barnyardgrass [2] = test: Test B flooded paddy test; type: in vivo, Echinochloa crus-galli; details: Flood, 250 g ai/ha; 0 to 100 scale where 0 is no effect and 100 is complete control
Method in brief: (§2)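 Plants were grown to the 2-leaf stage, then pots were flooded to 3 cm above the soil and compounds were applied directly into the paddy water. That depth was held throughout, and after 13 to 15 days in the greenhouse injury was rated visually against controls on a 0–100 scale (0 no effect, 100 complete control).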

Heteranthera limosa = test: Test B flooded paddy test; type: in vivo; details: Flood, 250 g ai/ha; 0 to 100 scale where 0 is no effect and 100 is complete control
Method in brief: as §2

blackgrass = test: Test A postemergence; type: in vivo, Alopecurus myosuroides
Method in brief: as §1

barnyardgrass [3] = test: Test A postemergence; type: in vivo, Echinochloa crus-galli
Method in brief: as §1

pigweed [4] = test: Test A postemergence; type: in vivo, Amaranthus retroflexus
Method in brief: as §1

giant foxtail [5] = test: Test A preemergence; type: in vivo, Setaria faberii
Method in brief: as §1

barnyardgrass [6] = test: Test A preemergence; type: in vivo, Echinochloa crus-galli
Method in brief: as §1

rice = test: Test B flooded paddy test; type: in vivo, Oryza sativa; details: Flood, 250 g ai/ha; 0 to 100 scale where 0 is no effect and 100 is complete control
Method in brief: as §2

kochia [7] = test: Test A preemergence; type: in vivo, Kochia scoparia
Method in brief: as §1

giant foxtail [8] = test: Test A postemergence; type: in vivo, Setaria faberii
Method in brief: as §1

ragweed [9] = test: Test A preemergence; type: in vivo, Ambrosia elatior
Method in brief: as §1

kochia [10] = test: Test A postemergence; type: in vivo, Kochia scoparia
Method in brief: as §1

wheat = test: Test A postemergence; type: in vivo, Triticum aestivum
Method in brief: as §1

Italian ryegrass [11] = test: Test A postemergence; type: in vivo, Lolium multiflorum
Method in brief: as §1

corn = test: Test A postemergence; type: in vivo, Zea mays
Method in brief: as §1

sedge, umbrella = test: Test B flooded paddy test; type: in vivo, Cyperus difformis; details: Flood, 250 g ai/ha; 0 to 100 scale where 0 is no effect and 100 is complete control
Method in brief: as §2

ragweed [12] = test: Test A postemergence; type: in vivo, Ambrosia elatior
Method in brief: as §1

pigweed [13] = test: Test A preemergence; type: in vivo, Amaranthus retroflexus
Method in brief: as §1

galium = test: Test A postemergence; type: in vivo, Galium aparine
Method in brief: as §1

[14] = 31 g ai/ha, 0 to 100 scale where 0 is no effect and 100 is complete control, visual, approximately 10 days
[15] = 125 g ai/ha, 0 to 100 scale where 0 is no effect and 100 is complete control
[16] = 31 g ai/ha, 0 to 100 scale, 0 no effect, 100 complete control
[17] = 125 g ai/ha, 0 to 100 scale, 0 no effect, 100 complete control
[18] = 500 g ai/ha, 0 to 100 scale where 0 is no effect and 100 is complete control

CCCOc1cnn(-c2c(F)cccc2Oc2ncc(F)cn2)c1 [Compound 153]
Plant response rating, Ryegrass, Italian (Italian ryegrass [1]; [14]): 0 | Plant response rating, Ryegrass, Italian (Italian ryegrass [1]; [15]): 0 | Plant response rating, Barnyardgrass (barnyardgrass [2]): 0 | Plant response rating, Ducksalad (Heteranthera limosa): 30 | Plant response rating, Blackgrass (blackgrass; [16]): 0 | Blackgrass plant response rating (blackgrass; [15]): 0 | Plant response rating, Barnyardgrass (barnyardgrass [3]; [16]): 0 | Barnyardgrass plant response rating (barnyardgrass [3]; [15]): 0 | Plant response rating, Pigweed (pigweed [4]; [16]): 0 | Pigweed plant response rating (pigweed [4]; [15]): 0 | Plant response rating, Foxtail, Giant (giant foxtail [5]; [14]): 0 | Plant response rating, Foxtail, Giant (giant foxtail [5]; [15]): 0 | Plant response rating, Barnyardgrass (barnyardgrass [6]; [14]): 0 | Plant response rating, Barnyardgrass (barnyardgrass [6]; [15]): 0 | Plant response rating, Rice (rice): 0 | Plant response rating, Kochia (kochia [7]; [14]): 0 | Plant response rating, Kochia (kochia [7]; [15]): 0 | Plant response rating, Foxtail, Giant (giant foxtail [8]; [16]): 0 | Foxtail, Giant plant response rating (giant foxtail [8]; [15]): 0 | Plant response rating, Ragweed (ragweed [9]; [14]): 0 | Plant response rating, Ragweed (ragweed [9]; [15]): 0 | Plant response rating, Kochia (kochia [10]; [16]): 0 | Kochia plant response rating (kochia [10]; [15]): 0 | Plant response rating, Wheat (wheat; [16]): 0 | Wheat plant response rating (wheat; [15]): 0 | Plant response rating, Ryegrass, Italian (Italian ryegrass [11]; [16]): 0 | Ryegrass, Italian plant response rating (Italian ryegrass [11]; [15]): 0 | Plant response rating, Corn (corn; [16]): 0 | Corn plant response rating (corn; [15]): 0 | Plant response rating, Sedge, Umbrella (sedge, umbrella): 0 | Plant response rating, Ragweed (ragweed [12]; [16]): 0 | Ragweed plant response rating (ragweed [12]; [15]): 0 | Plant response rating, Pigweed (pigweed [13]; [14]): 0 | Plant response rating, Pigweed (pigweed [13]; [15]): 0 | Plant response rating, Galium (galium; [16]): 0 | Galium plant response rating (galium; [15]): 0

Cc1cc(C(F)(F)F)nn1-c1ccccc1Oc1ncc(Cl)cn1 [Compound 266]
Plant response rating, Ryegrass, Italian (Italian ryegrass [1]; [14]): 0 | Ryegrass, Italian plant response rating (0 to 100 scale) (Italian ryegrass [1]; 125 g ai/ha): 0 | Plant response rating, Barnyardgrass (barnyardgrass [2]): 0 | Plant response rating, Ducksalad (Heteranthera limosa): 0 | Plant response rating, Blackgrass (blackgrass; [16]): 0 | Plant response rating, Blackgrass (blackgrass; [17]): 0 | Plant response rating, Barnyardgrass (barnyardgrass [3]; [16]): 0 | Plant response rating, Barnyardgrass (barnyardgrass [3]; [17]): 0 | Plant response rating, Pigweed (pigweed [4]; [16]): 0 | Plant response rating, Pigweed (pigweed [4]; [17]): 0 | Plant response rating, Foxtail, Giant (giant foxtail [5]; [14]): 0 | Foxtail, Giant plant response rating (0 to 100 scale) (giant foxtail [5]; 125 g ai/ha): 0 | Plant response rating, Barnyardgrass (barnyardgrass [6]; [14]): 0 | Barnyardgrass plant response rating (0 to 100 scale, 0 is no effect, 100 is complete control) (barnyardgrass [6]; 125 g ai/ha): 0 | Plant response rating, Rice (rice): 0 | Plant response rating, Kochia (kochia [7]; [14]): 0 | Kochia plant response rating (0 to 100 scale) (kochia [7]; 125 g ai/ha): 0 | Plant response rating, Foxtail, Giant (giant foxtail [8]; [16]): 0 | Plant response rating, Foxtail, Giant (giant foxtail [8]; [17]): 0 | Plant response rating, Ragweed (ragweed [9]; [14]): 0 | Ragweed plant response rating (0 to 100 scale) (ragweed [9]; 125 g ai/ha): 0 | Plant response rating, Kochia (kochia [10]; [16]): 0 | Plant response rating, Kochia (kochia [10]; [17]): 0 | Plant response rating, Wheat (wheat; [16]): 0 | Plant response rating, Wheat (wheat; [17]): 0 | Plant response rating, Ryegrass, Italian (Italian ryegrass [11]; [16]): 0 | Plant response rating, Ryegrass, Italian (Italian ryegrass [11]; [17]): 0 | Plant response rating, Corn (corn; [16]): 0 | Plant response rating, Corn (corn; [17]): 0 | Plant response rating, Sedge, Umbrella (sedge, umbrella): 0 | Plant response rating, Ragweed (ragweed [12]; [16]): 0 | Plant response rating, Ragweed (ragweed [12]; [17]): 0 | Plant response rating, Pigweed (pigweed [13]; [14]): 0 | Pigweed plant response rating (0 to 100 scale) (pigweed [13]; 125 g ai/ha): 0 | Plant response rating, Galium (galium; [16]): 0 | Plant response rating, Galium (galium; [17]): 0

COc1ccc(C#N)c(-n2cc(Br)cn2)c1Oc1ncc(Cl)cn1 [Compound 212]
Ryegrass, Italian plant response rating (0 to 100 scale) (Italian ryegrass [1]; 125 g ai/ha): 0 | Ryegrass, Italian plant response rating (Italian ryegrass [1]; [18]): 20 | Plant response rating, Barnyardgrass (barnyardgrass [2]): 0 | Plant response rating, Ducksalad (Heteranthera limosa): 0 | Blackgrass plant response rating (blackgrass; [15]): 10 | Plant response rating, Blackgrass (blackgrass; [18]): 50 | Barnyardgrass plant response rating (barnyardgrass [3]; [15]): 0 | Plant response rating, Barnyardgrass (barnyardgrass [3]; [18]): 0 | Pigweed plant response rating (pigweed [4]; [15]): 20 | Plant response rating, Pigweed (pigweed [4]; [18]): 30 | Foxtail, Giant plant response rating (0 to 100 scale) (giant foxtail [5]; 125 g ai/ha): 0 | Foxtail, Giant plant response rating (giant foxtail [5]; [18]): 50 | Barnyardgrass plant response rating (0 to 100 scale, 0 is no effect, 100 is complete control) (barnyardgrass [6]; 125 g ai/ha): 0 | Barnyardgrass plant response rating (barnyardgrass [6]; [18]): 20 | Plant response rating, Rice (rice): 0 | Kochia plant response rating (0 to 100 scale) (kochia [7]; 125 g ai/ha): 0 | Kochia plant response rating (kochia [7]; [18]): 40 | Foxtail, Giant plant response rating (giant foxtail [8]; [15]): 0 | Plant response rating, Foxtail, Giant (giant foxtail [8]; [18]): 50 | Ragweed plant response rating (0 to 100 scale) (ragweed [9]; 125 g ai/ha): 0 | Ragweed plant response rating (ragweed [9]; [18]): 0 | Kochia plant response rating (kochia [10]; [15]): 0 | Plant response rating, Kochia (kochia [10]; [18]): 10 | Wheat plant response rating (wheat; [15]): 0 | Plant response rating, Wheat (wheat; [18]): 30 | Ryegrass, Italian plant response rating (Italian ryegrass [11]; [15]): 20 | Plant response rating, Ryegrass, Italian (Italian ryegrass [11]; [18]): 30 | Corn plant response rating (corn; [15]): 0 | Plant response rating, Corn (corn; [18]): 0 | Plant response rating, Sedge, Umbrella (sedge, umbrella): 0 | Ragweed plant response rating (ragweed [12]; [15]): 0 | Plant response rating, Ragweed (ragweed [12]; [18]): 10 | Pigweed plant response rating (0 to 100 scale) (pigweed [13]; 125 g ai/ha): 70 | Pigweed plant response rating (pigweed [13]; [18]): 90 | Galium plant response rating (galium; [15]): 10 | Plant response rating, Galium (galium; [18]): 30

O=Cc1cn(-c2ccccc2Oc2ncc(Cl)cn2)nn1 [Compound 272]
Plant response rating, Ryegrass, Italian (Italian ryegrass [1]; [14]): 0 | Ryegrass, Italian plant response rating (0 to 100 scale) (Italian ryegrass [1]; 125 g ai/ha): 0 | Plant response rating, Barnyardgrass (barnyardgrass [2]): 0 | Plant response rating, Ducksalad (Heteranthera limosa): 0 | Plant response rating, Blackgrass (blackgrass; [16]): 0 | Plant response rating, Blackgrass (blackgrass; [17]): 0 | Plant response rating, Barnyardgrass (barnyardgrass [3]; [16]): 0 | Plant response rating, Barnyardgrass (barnyardgrass [3]; [17]): 0 | Plant response rating, Pigweed (pigweed [4]; [16]): 0 | Plant response rating, Pigweed (pigweed [4]; [17]): 0 | Plant response rating, Foxtail, Giant (giant foxtail [5]; [14]): 0 | Foxtail, Giant plant response rating (0 to 100 scale) (giant foxtail [5]; 125 g ai/ha): 0 | Plant response rating, Barnyardgrass (barnyardgrass [6]; [14]): 0 | Barnyardgrass plant response rating (0 to 100 scale, 0 is no effect, 100 is complete control) (barnyardgrass [6]; 125 g ai/ha): 0 | Plant response rating, Rice (rice): 0 | Plant response rating, Kochia (kochia [7]; [14]): 0 | Kochia plant response rating (0 to 100 scale) (kochia [7]; 125 g ai/ha): 0 | Plant response rating, Foxtail, Giant (giant foxtail [8]; [16]): 0 | Plant response rating, Foxtail, Giant (giant foxtail [8]; [17]): 0 | Plant response rating, Ragweed (ragweed [9]; [14]): 0 | Ragweed plant response rating (0 to 100 scale) (ragweed [9]; 125 g ai/ha): 0 | Plant response rating, Kochia (kochia [10]; [16]): 0 | Plant response rating, Kochia (kochia [10]; [17]): 0 | Plant response rating, Wheat (wheat; [16]): 0 | Plant response rating, Wheat (wheat; [17]): 0 | Plant response rating, Ryegrass, Italian (Italian ryegrass [11]; [16]): 0 | Plant response rating, Ryegrass, Italian (Italian ryegrass [11]; [17]): 0 | Plant response rating, Corn (corn; [16]): 0 | Plant response rating, Corn (corn; [17]): 0 | Plant response rating, Sedge, Umbrella (sedge, umbrella): 0 | Plant response rating, Ragweed (ragweed [12]; [16]): 0 | Plant response rating, Ragweed (ragweed [12]; [17]): 0 | Plant response rating, Pigweed (pigweed [13]; [14]): 0 | Pigweed plant response rating (0 to 100 scale) (pigweed [13]; 125 g ai/ha): 0 | Plant response rating, Galium (galium; [16]): 0 | Plant response rating, Galium (galium; [17]): 0
